# Measurements reported in patent publication US8957106B2, “Iminosugar treatment of tumors” (The Chancellor, Masters and Scholars of the University of …, priority 2007, dated 2015).
# Read-outs that look alike come from different tables or passages of the source.
# Legend:
# [1] = read-out: IC50 doses reported by other in vitro studies, cited from earlier work
# B16F10 melanoma cells = assay: MTS cell viability assay, B16F10; format: cell-based, murine; details: Mus musculus, B16-F10, B16F10, 24 h, read-out: IC50
# Procedure: (§1) Cells were cultured at indicated densities for 24 h, medium was removed and the incubation was continued in a fresh culture medium containing various GC2 or DTIC concentrations. In control experiments, cells were grown in a culture medium containing GC2 buffer.
# (§2) The standard […] (MTS)-3-(4,5-dimethylthiazol-2-yl)-5-(3-carboxymethoxyphenyl)-2-(4-sulphophenyl)-2H-tetrazolium inner salt solution assay was performed in order to examine the cytotoxic/cytostatic effect of GC2 on melanoma cells. Briefly, 7.5×10^3 cells were seeded in 96-well microtiter plates (Nunc). After an overnight incubation, serial dilutions of GC2 or DTIC were added in triplicate to a final volume of 100 μl. The blank was represented by a culture medium without cells containing the highest GC2 or DTIC concentration. After 24 h of incubation 20 μl MTS was added to each well and all samples were incubated for 3 h at 37° C. An absorbance of each well was read at 450 nm in a microplate reader. A percentage of cell viability was calculated considering that 100% cell viability was represented by an absorbance of untreated samples […]. Alternatively, the number of viable cells was determined by Trypan blue exclusion test. Melanoma cells treated with GC2 were trypsinized and cells negative for blue staining (viable cells) were counted using a hemocytometer. […]
# B16D2 melanoma cells = assay: MTS cell viability assay, B16D2; format: cell-based; details: B16D2, 24 h, read-out: IC50
# Procedure: as §1, §2
# MNT-1 melanoma cells = assay: MTS cell viability assay, MNT-1; format: cell-based; details: Homo sapiens, MNT-1, 24 h, read-out: IC50
# Procedure: as §1, §2
# MelJuSo melanoma cells = assay: MTS cell viability assay, MelJuSo; format: cell-based; details: Homo sapiens, MEL-JUSO, 24 h, read-out: IC50
# Procedure: as §1, §2
# SKMel28 melanoma cells = assay: MTS cell viability assay, SKMel28; format: cell-based; details: Homo sapiens, SK-MEL-28, SKMel28, 24 h, read-out: IC50
# Procedure: as §1, §2
IC50 (B16F10 melanoma cells) [µM],IC50 (B16D2 melanoma cells) [µM],IC50 (MNT-1 melanoma cells) [µM],IC50 (MelJuSo melanoma cells) [µM],IC50 (SKMel28 melanoma cells) [µM],Structure (SMILES),IC50 ([1]; literature data) [µM],IC50 ([1]; literature data (Lev et al. 2004)) [µM]
,,,,,CCCCCCCCCCCCC/C=C/[C@@H](O)[C@H](CO)NC(C)=O [C2-ceramide],100,
3000 to 4000,3000 to 4000,3000 to 4000,3000 to 4000,3000 to 4000,"CN(C)N=Nc1[nH]cnc1C(N)=O [DTIC, 5-(3,3-dimethyl-1-triazeno)-imidazole-4-carboxamide, reference compound]",,1000
